According to patent publication US5132432A, “Chemically reactive pyrenyloxy sulfonic acid dyes” (Molecular Probes, Inc., priority 1989, dated 1992):
Where a name gives a salt, the structure may show the parent alone. Read-outs that look alike come from different tables or passages of the source.

What was measured:
Swiss-Webster mice = conditions: mouse, in vivo; cited from earlier work
[1] = Solubility in water / aqueous solution; conditions: solubility of the reactive form of the dye; grade in words
[2] = Quantum yield relative to quinine sulfate; assay type: physicochemical; conditions: in 50 mM phosphate buffer at pH 8.0
Description: An estimate of the quantum yield of the dyes relative to quinine sulfate (quantum yield=0.55 in 1N sulfuric acid) was obtained by integrating the emission spectrum of the dye excited at the same wavelength and optical density as the standard.

[3] = Comparison of spectral properties of reactive dyes, Table 1; assay type: physicochemical; conditions: for Quantum Yield: in aqueous solution, grade in words
Description: A number of dyes have been proposed in the literature that can be excited and detected at wavelengths less than 500 nm. Several chemically reactive fluorophores that can be excited in the near ultraviolet and short wavelength visible region of the spectrum have been described. […] These proposed tracers are derived from naphthalene derivatives such as 5-dimethylaminonaphthalene-1-sulfonic acid (Dansyl) [Weber, Biochem. J. 41:145 (1952); Rinderknecht, Experientin 16:430 (1960)], 3-(isothiocyanato)naphthalene-1,5-disulfonic acid [Braunitzer, et al., Hoppe-Seyler's Z. Physiol. […] Chem. 358:505 (1977)], pyrene derivatives such as pyrene-1-butyric acid (PBA) [Malencik & Anderson, Biochemistry 11:3022 (1972)], 8-isothiocyanatopyrene-1,3,6-trisulfonic acid (IPTS) [Braunitzer,et al., Hoppe-Seyler's Z. Physiol. Chem. 354:1536 (1973)] and 8-hydroxypyrene-1,3,6-trisulfonyl chloride [Wolfbeis, Fresenies Z. Anal. Chem. 320:271 (1985)], stilbene derivatives such as 4-acetamido-4'-isothiocyanatostilbene-2,2'-disulfonic acid (SITS) [Cornelisse & Ploem, J. Histochem. Cytochem. 24:72 (1976)], and coumarin dyes such as 3-carboxy-7-hydroxycoumarin [Baker & Collis, J. Chem. Soc. 1949, S 12 (1949)], 7-hydroxy-4-methylumbelliferone-3-acetic acid (4-MUA) [Khalfan, et al., Biochem. J. 209:265 (1983)], 7-amino-4-methylcoumarin-3-acetic acid (AMCA) [Khalfan, et al., Histochem. J. 18:497 (1986)] and 7-diethylaminocoumarin [Staines, et al. (1988)].

[4] = Emission spectra comparison of equimolar solutions / normalized spectra (FIG. 2, FIG. 3); assay type: physicochemical
Description: The narrower spectral width makes the dyes particularly valuable for applications requiring multiple dyes such as flow cytometry, DNA sequencing [Smith, et at. (1985)] and multiparameter microscopy. The utility of the objects of this invention in multiparameter applications is illustrated in FIG. 3. […] The extinction coefficients for the pyrenyloxy sulfonic acid dyes are generally greater than 25,000 cm^-1 M^-1 and the quantum yields of the dyes in aqueous solution are generally above 0.5. In FIG. 4, the emission intensities of bovine serum albumin (BSA) conjugates of the pyrene isothiocyanate IPTS are compared to the BSA conjugates of compound 9. […] The subject dyes show only minor spectral shifts and intensity changes between water, methanol, and ethanol and have absorption and emission spectra that lack significant pH dependence between pH 6 and 10, as illustrated in FIG. 5. Table 4 lists the approximate spectral properties of a number of the dyes and intermediates that are the subject of this invention.

[5] = Spectral properties (absorption/emission) of new pyrenyloxy sulfonic acid dyes, Table 4; assay type: physicochemical; conditions: 50 mM aqueous potassium phosphate buffer at pH 8.0
Description: Stock solutions were prepared by accurately weighing and dissolving 5-10 mg samples of the compounds in 2.000 ml water. A 10 μl aliquot of the stock solution was diluted into 2.00 ml of 50 mM potassium phosphate buffer at pH 8.0. Absorbance solutions were prepared by further diluting 200 μl of the diluted stock solution to 2.000 ml with 50 mM potassium phosphate buffer at pH 8.0. Absorption data was collected on an IBM Model 9420 UV/Visible Spectrophotometer and extinction coefficients were determined by standard Beer's Law calculations.
Uncorrected fluorescence data was obtained on a Perkin-Elmer Model 650-40 Fluorescence Spectrophotometer equipped with a Perkin-Elmer/Hitachi 057 X-Y Recorder using a ten- to twentyfold dilution of the absorbance solutions. Fluorescence of the pyrenyloxy sulfonic acid dyes was determined for the reactive dyes and for their conjugates with model compounds by dissolving the dye at a concentration above 1×10^-8M in an appropriate solvent such as water, methanol, ethanol, or dimethylsulfoxide and measurement of the fluorescence in a suitable instrument, such as a fluorescence spectrometer or fluorescence microscope or flow cytometer. Fluorescence could also be observed for the dyes in solution by visual inspection with illumination by a suitable source that emits light at wavelengths of less than 420 nm.

[6] = system: anion transport systems in red blood cells; conditions: cited from earlier work
[7] = background statement; cited from earlier work
[8] = system: microsomal glucose-6-phosphatase; conditions: cited from earlier work
[9] = in 1N sulfuric acid; cited from earlier work
[10] = full bandwidth at half peak height

O=S(=O)([O-])c1cc(O)c2ccc3c(S(=O)(=O)[O-])cc(S(=O)(=O)[O-])c4ccc1c2c34.[Na+].[Na+].[Na+] [8-hydroxypyrene-1,3,6-trisulfonic acid, trisodium salt]
toxicity to Swiss-Webster mice (Swiss-Webster mice): nontoxic to Swiss-Webster mice

O=S(=O)(O)c1cc(O)c2ccc3c(S(=O)(=O)O)cc(S(=O)(=O)O)c4ccc1c2c34 [8-hydroxypyrene-1,3,6-trisulfonic acid]
LD50 (Swiss-Webster mice): exceeding 1000 mg/kg

NNC(=O)COc1cc(S(=O)(=O)[O-])c2ccc3c(S(=O)(=O)[O-])cc(S(=O)(=O)[O-])c4ccc1c2c43.[Na+].[Na+].[Na+] [Compound 12, 1,3,6-Trisulfo-8-pyrenyloxyacethydrazide, trisodium salt]
Water Solubility [1]: high | Quantum Yield [2]: 0.54 | ε ([3]; at first maximum): 28000 M⁻¹ cm⁻¹ | ε ([3]; at second maximum): 23300 M⁻¹ cm⁻¹ | Abs Max ([3]; first maximum): 399 nm | Emission Bandwidth [3, 10]: 50 nm | Emission Bandwidth [cm^-1] [3, 10]: 2168 cm⁻¹ | Quantum Yield [3]: high | % Emission at 514 nm ([3]; percent of maximum emission at 514 nm): 3.8 % of max | Abs Max ([3]; second maximum): 376 nm | resolution of emission from fluorescein and Lucifer Yellow CH [4]: emission which is well resolved from the emission bands of both these widely used dyes | Emission Band-width [5]: 50 nm | Emission at 514 nm [5]: 3.9 % of max | Abs Max ([5]; first (longer-wavelength) maximum): 399 nm | Abs Max ([5]; second (shorter-wavelength) maximum): 377 nm

CC(=O)Nc1ccc(/C=C/c2ccc(N=C=S)cc2S(=O)(=O)O)c(S(=O)(=O)O)c1 [SITS, 4-acetamido-4'-isothiocyanatostilbene-2,2'-disulfonic acid]
Water Solubility [1]: high | effect on anion transport systems in red blood cells [6]: inhibitory effect | aqueous solubility / lipophilicity [7]: high water solubility | % Emission at 514 nm [3]: 19 | Abs Max [3]: 337 | Em. Max. [3]: 438 | Emission Bandwidth [3]: 82 | Emission Bandwidth [cm^-1] [3]: 4825 | ε [3]: 37400 M⁻¹ cm⁻¹ | Quantum Yield [3]: low | effect on microsomal glucose-6-phosphatase [8]: inhibitory effect

C=C[C@H]1C[N@@]2CC[C@H]1C[C@H]2[C@H](O)c1ccnc2ccc(OC)cc12 [quinine sulfate]
quantum yield of standard [9]: 0.55
